Here are results for 13 molecules from ChEMBL document CHEMBL4033787, “Glutathione S-Transferase π-Activatable O2-(Sulfonylethyl Derived) Diazeniumdiolates Potently Suppress Melanoma in Vitro and in Vivo” (J Med Chem, 2018).

Molecules are shown by their SMILES. Activity calls are given as the source filed them. No cut-off for these calls is given here.

Series [1] has as its system B16. Nature of the series: Antitumor activity against mouse B16 cells implanted in iv dosed nude mouse assessed as reduction in tumor weight administered every other day for 20 days. The series is classed as functional, organism-based.
Series [2] can be described thus: Substrate activity at GST-Pi in mouse B16 cells assessed as increase in NO release at 20 uM by Griess assay. The following applies: TDE = time-dependent effect. The series is classed as ADME, cell-based. Background: Nitrite, measured by Griess reagent, commonly stands in for NO production.
Series [3] deals with MCF7. Put plainly: Antiproliferative activity against human MCF7 cells after 72 hrs by MTT assay. The series is classed as functional, cell-based. The settings on record: MCF7, 72 h. (Tetrazolium assays rely on reduction of a dye to a coloured formazan, in cell work by metabolically active cells.)
Series [4] has as its system B16. Put plainly: Antiproliferative activity against mouse B16 cells at 3 uM after 24 hrs in presence of NO scavenger carboxy-PTIO by MTT assay. The series is classed as functional, cell-based.
Series [5] in a line: Selectivity index, ratio of IC50 for mouse JB6 Cl 30-7b cells to IC50 for mouse B16 cells. It counts as functional.
Series [6] has as its system B16. Nature of the series: Antiproliferative activity against mouse B16 cells after 72 hrs by MTT assay. The series is classed as functional, cell-based. The following applies: B16, 72 h.
Series [7] deals with HT-29. Put plainly: Antiproliferative activity against human HT-29 cells at 1 uM after 72 hrs by MTT assay. The series is classed as functional, cell-based.
Series [8] is described as follows: Antiproliferative activity against mouse JB6 Cl 30-7b cells after 72 hrs by MTT assay. The series is classed as cell-based.
In series [9] the test system is B16. Put plainly: Induction of nitration of mitochondrial cytochrome C in mouse B16 cells implanted in iv dosed mouse assessed as increase in nitrated cytochrome C levels administered every other day for 20 days by Western blot analysis. The series is classed as functional, organism-based. (In general: A western blot detects proteins with antibodies after separation by electrophoresis.)

Series [10] has as its system B16. Nature of the series: Antitumor activity against mouse B16 cells implanted in nude mouse assessed as inhibition of tumor growth at 7.5 mg/kg, iv administered every other day for 20 days relative to control. The series is classed as functional. The settings on record: 480 h, read-out: TGI.
For series [11], the system named is B16. Put plainly: Induction of nitration of mitochondrial cytochrome C in mouse B16 cells assessed as increase in nitrated cytochrome C levels at 10 uM after 24 hrs in presence of NO scavenger hemoglobin by Western blot analysis. It counts as functional, cell-based.
The test system of series [12] is B16. Nature of the series: Induction of nitration of mitochondrial cytochrome C in mouse B16 cells assessed as increase in nitrated cytochrome C levels at 10 uM after 24 hrs by Western blot analysis. The series is classed as functional, cell-based.
Series [13] in a line: Drug metabolism assessed as GSTalpha (unknown origin)-mediated compound decomposition at 40 uM by UV spectrophotometric analysis. The series is classed as ADME. The settings on record: human.
Series [14] relates to B16. Nature of the series: Antitumor activity against mouse B16 cells implanted in iv dosed nude mouse assessed as reduction in tumor volume administered every other day for 20 days. The series is classed as functional, organism-based.
The subject of series [15] is B16. Nature of the series: Antiproliferative activity against mouse B16 cells at 1 uM after 72 hrs by MTT assay. It counts as functional, cell-based.
Series [16] in a line: Substrate activity at GST-Pi in mouse B16 cells assessed as increase in NO release after 8 hrs by DAF-FM DA dye-based flow cytometric analysis. The series is classed as ADME, cell-based.
Series [17] relates to B16. Put plainly: Antiproliferative activity against mouse B16 cells at 3 uM after 24 hrs in presence of GST-Pi inhibitor etacrynic acid by MTT assay. The series is classed as functional, cell-based.
In series [18] the test system is B16. Put plainly: Antiproliferative activity against mouse B16 cells at 3 uM after 24 hrs in presence of NO scavenger hemoglobin by MTT assay. The series is classed as functional, cell-based.
Series [19] deals with B16. Nature of the series: Antitumor activity against mouse B16 cells implanted in nude mouse assessed as inhibition of tumor growth at 30 mg/kg, iv administered every other day for 20 days relative to control. It counts as functional. The following applies: 480 h, read-out: TGI.
The subject of series [20] is 9L-2. Nature of the series: Antiproliferative activity against rat 9L-2 cells at 1 uM after 72 hrs by MTT assay. The series is classed as functional, cell-based.
For series [21], the system named is Mus musculus. Nature of the series: Toxicity in mouse assessed as weight loss at 7.5 to 30 mg/kg, iv dosed for every other day for 20 days. The series is classed as organism-based. The following applies: in vivo, 480 h.
The nature of series [22]: Stability of compound in normal saline after 500 mins by UV spectrophotometric analysis. The following applies: buffer. The series is classed as physicochemical.
The subject of series [23] is Mus musculus. Put plainly: Toxicity in mouse assessed as mortality at 7.5 to 30 mg/kg, iv dosed for every other day for 20 days. It counts as organism-based. The following applies: in vivo, 480 h.
The nature of series [24]: Drug metabolism assessed as GST-Pi (unknown origin)-mediated compound decomposition at 40 uM by UV spectrophotometric analysis. It counts as ADME. The following applies: human, TDE = time-dependent effect.
Series [25] deals with MCF7. Put plainly: Antiproliferative activity against human MCF7 cells at 1 uM after 72 hrs by MTT assay. It counts as functional, cell-based.
Series [26] is described as follows: Substrate activity at GST-Pi in mouse JB6 Cl 30-7b cells assessed as NO release at 20 uM after 8 hrs by Griess assay. The series is classed as ADME, cell-based.
Series [27] concerns B16. Nature of the series: Antitumor activity against mouse B16 cells implanted in nude mouse assessed as inhibition of tumor growth at 15 mg/kg, iv administered every other day for 20 days relative to control. It counts as functional. The following applies: 480 h, read-out: TGI.
For series [28], the system named is B16. Put plainly: Antiproliferative activity against mouse B16 cells after 72 hrs in presence of equimolar concentration of (S)-2-amino-5-((R)-1-(carboxymethylamino)-1-oxo-3-(vinylsulfonyl)propan-2-ylamino)-5-oxopentanoic acid by MTT assay. It counts as functional, cell-based. The settings on record: B16, 72 h.
Series [29] concerns B16. Put plainly: Antiproliferative activity against mouse B16 cells after 72 hrs in presence of equimolar concentration of 4-hydroxy-1-(oxido-NNO-azoxy)piperidine by MTT assay. The series is classed as functional, cell-based. The following applies: B16, 72 h.

Consider `N[C@@H](CCC(=O)N[C@@H](CS(=O)(=O)CCO/N=[N+](\[O-])N1CCC(O)CC1)C(=O)NCC(=O)O)C(=O)O`, for which the Activity entry is “Dose-dependent effect” in series [1]; “Dose-dependent effect” in series [9]; “Dose-dependent effect” in series [14]; “Non-Toxic” in series [21]; “Non-Toxic” in [23]. The Drug metabolism result in series [2] was “Tde”; in series [13], “Metabolite_Notdetected”; in [16], “Dose-dependent effect”; in [24], “Tde”; in series [26], “Metabolite_Notdetected”. Moreover, the IC50 (in general, the concentration needed to halve the response being measured) was 306 nM in series [3], 184 nM in series [6] and 1400 nM in series [8]. Further, the outcome in series [4], in series [17], in series [18] and in series [20] was inactive. For the same molecule, the “Ratio IC50” value in series [5] stood at 8. The outcome in series [7], in [11], in [12], in [15] and in [25] was Active. The inhibition in vivo at 7.5 mg/kg in [10] was 42.3%. The inhibition in vivo at 30 mg/kg in series [19] worked out at 84.8%. In addition, the Stability entry in series [22] is listed as “Stable”. The inhibition in vivo at 15 mg/kg in series [27] is 76.2%.

In the case of `N[C@@H](CCC(=O)N[C@@H](CS(=O)(=O)CCO/N=[N+](\[O-])N1CCCC1CO)C(=O)NCC(=O)O)C(=O)O` (stereo not given in full), the outcome in [7], in [15] and in [25] was Active. The outcome in [20] was inactive.

In the case of `CCOC(=O)CNC(=O)[C@H](CS(=O)(=O)CCO/N=[N+](\[O-])N(CCCl)CCCl)NC(=O)CC[C@H](N)C(=O)OCC`, the outcome in [7], in [15] and in series [25] was Active. The result in [20] was inactive.

As to `CN(C)/N=N/c1[nH]cnc1C(N)=O` [DACARBAZINE], the inhibition in vivo at 15 mg/kg in series [27] stood at 49.9%.

With `[O-]/[N+](=N\O)N1CCC(O)CC1`, the IC50 was 928 nM in series [6] and 553 nM in series [28].

With `COC(=O)CNC(=O)[C@H](CS(=O)(=O)CCO/N=[N+](\[O-])N(CCCl)CCCl)NC(=O)CC[C@H](N)C(=O)OC`, the result in [7], in series [15] and in series [25] was Active. For the same molecule, in series [20], the result was inactive.

`C=CS(=O)(=O)C[C@H](NC(=O)CC[C@H](N)C(=O)O)C(=O)NCC(=O)O`: the IC50 in series [6] is 1910 nM; in [29], 553 nM. Moreover, the outcome in series [11] was inactive.

With `N[C@@H](CCC(=O)N[C@@H](CS(=O)(=O)CCO/N=[N+](\[O-])N1CCCC1)C(=O)NCC(=O)O)C(=O)O`, the outcome in series [7], in [15] and in [25] was Active. Also, the outcome in [20] was inactive.

Regarding `CCOC(=O)N1CCN(/[N+]([O-])=N/Oc2ccc([N+](=O)[O-])cc2[N+](=O)[O-])CC1`, the figures for the IC50 in series [3] and in series [6] were 993 nM and 1340 nM, respectively. Besides, in series [26], the Drug metabolism result was “Metabolite_Notdetected”.

Regarding `N[C@@H](CCC(=O)N[C@@H](CS(=O)(=O)CCOP(=O)(N(CCCl)CCCl)N(CCCl)CCCl)C(=O)N[C@@H](C(=O)O)c1ccccc1)C(=O)O` [CANFOSFAMIDE], the IC50 in series [3] came to 870 nM; in [6] it was 710 nM.

For `CCOC(=O)N1CCN(/[N+]([O-])=N/OCCS(=O)(=O)C[C@H](NC(=O)CC[C@H](N)C(=O)O)C(=O)NCC(=O)O)CC1`, the outcome in series [7], in [15] and in series [25] was Active. Also, the outcome in [20] was inactive.

Turning to `CCOC(=O)N1CCN(/[N+]([O-])=N/OCCS(=O)(=O)C[C@H](NC(=O)CC[C@H](N)C(=O)OC)C(=O)NCC(=O)OC)CC1`, the results for the IC50 in series [3] and in [6] were 338 nM and 195 nM, respectively. The outcome in [7], in series [15] and in [25] was Active. For the same molecule, the result in [20] was inactive.

On to `N[C@@H](CCC(=O)N[C@@H](CS(=O)(=O)CCO/N=[N+](\[O-])N(CCCl)CCCl)C(=O)NCC(=O)O)C(=O)O`, for which the results for the 50% inhibitory concentration (IC50) in series [3] and in [6] were 611 nM and 404 nM, respectively. Besides, the result in series [7], in [15] and in series [25] was Active. In addition, the outcome in series [20] was inactive.
